{
  "source": "patent US7727731B2",
  "about": "“Potent, selective and non toxic c-kit inhibitors” (AB Science, priority 2001, dated 2010)",
  "key": {"[1]": {"test_system": "mutant in a human mast cell leukemia cell line (HMC-1, expressing a juxtamembrane mutation)", "conditions": "cited from earlier work"}, "[2]": {"target": "c-kit wild (Mus musculus, UniProt P05532)", "sequence (P05532 25-975 isoform P05532-2 limits assumed)": "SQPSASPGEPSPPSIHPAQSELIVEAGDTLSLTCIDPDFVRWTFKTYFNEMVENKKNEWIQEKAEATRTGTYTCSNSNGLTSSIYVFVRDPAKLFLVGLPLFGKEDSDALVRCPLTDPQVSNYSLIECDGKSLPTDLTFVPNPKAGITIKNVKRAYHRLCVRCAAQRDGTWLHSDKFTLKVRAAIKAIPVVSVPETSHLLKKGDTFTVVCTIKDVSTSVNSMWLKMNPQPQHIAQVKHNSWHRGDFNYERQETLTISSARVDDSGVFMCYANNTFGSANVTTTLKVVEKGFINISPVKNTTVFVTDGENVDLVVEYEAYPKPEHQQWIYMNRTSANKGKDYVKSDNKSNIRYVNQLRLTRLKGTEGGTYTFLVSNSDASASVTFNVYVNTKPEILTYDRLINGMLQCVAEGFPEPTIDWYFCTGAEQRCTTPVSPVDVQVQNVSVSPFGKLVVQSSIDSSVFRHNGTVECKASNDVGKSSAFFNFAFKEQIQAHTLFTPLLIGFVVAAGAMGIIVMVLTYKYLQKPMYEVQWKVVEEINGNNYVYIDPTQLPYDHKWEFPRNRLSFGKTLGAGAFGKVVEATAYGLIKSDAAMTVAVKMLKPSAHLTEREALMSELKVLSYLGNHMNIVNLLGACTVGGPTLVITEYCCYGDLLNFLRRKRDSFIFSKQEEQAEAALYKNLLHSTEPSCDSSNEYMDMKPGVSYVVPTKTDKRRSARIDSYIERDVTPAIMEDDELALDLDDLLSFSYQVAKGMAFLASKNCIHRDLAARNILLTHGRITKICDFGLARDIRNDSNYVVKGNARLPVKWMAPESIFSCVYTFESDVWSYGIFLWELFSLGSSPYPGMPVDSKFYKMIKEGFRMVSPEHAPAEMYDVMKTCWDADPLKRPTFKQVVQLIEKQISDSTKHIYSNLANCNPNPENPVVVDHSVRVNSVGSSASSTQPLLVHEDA", "assay": "c-kit phosphorylation after immunoprecipitation, c-kit wild", "format": "cell-based", "method": "(§1) First step: cellular proliferation to select molecules which are able to slowdown or stop cellular growth induced by c-kit activation. Here, SCF activated c-kit is used. Then, the effect of these molecules is analyzed by biochemistry techniques (immuno precipitations and western-blots), so that to determine if the inhibitor acts directly on the receptor c-kit or on other proteins, which are mediators of Kit signals. In a second step, a subset of molecules identified is selected in a cellular test on IL-3 dependant cells cultured in presence of IL-3. molecules that are not toxic are identified as potent specific c-kit inhibitors for a use in therapy.\n(§2) The first step of c-kit activation consists of receptor phosphorylation on tyrosine residues. Thus, the phosphorylation state is a measure of receptor activation. By using specific antibodies, c-kit has been isolated by immunoprecipitation and c-kit phosphorylation has been determined using common procedures."}, "[3]": {"target": "T1, FMA3 (deletion 7aa. juxtamembrane) (Mus musculus, UniProt P05532, DEL577-583)", "T1 construct": "endogenous in cells; host or cells: FMA3 mouse mastocytoma cells", "T1 sequence (P05532 with tags, fused parts or gaps isoform P05532-2 DEL573-579)": "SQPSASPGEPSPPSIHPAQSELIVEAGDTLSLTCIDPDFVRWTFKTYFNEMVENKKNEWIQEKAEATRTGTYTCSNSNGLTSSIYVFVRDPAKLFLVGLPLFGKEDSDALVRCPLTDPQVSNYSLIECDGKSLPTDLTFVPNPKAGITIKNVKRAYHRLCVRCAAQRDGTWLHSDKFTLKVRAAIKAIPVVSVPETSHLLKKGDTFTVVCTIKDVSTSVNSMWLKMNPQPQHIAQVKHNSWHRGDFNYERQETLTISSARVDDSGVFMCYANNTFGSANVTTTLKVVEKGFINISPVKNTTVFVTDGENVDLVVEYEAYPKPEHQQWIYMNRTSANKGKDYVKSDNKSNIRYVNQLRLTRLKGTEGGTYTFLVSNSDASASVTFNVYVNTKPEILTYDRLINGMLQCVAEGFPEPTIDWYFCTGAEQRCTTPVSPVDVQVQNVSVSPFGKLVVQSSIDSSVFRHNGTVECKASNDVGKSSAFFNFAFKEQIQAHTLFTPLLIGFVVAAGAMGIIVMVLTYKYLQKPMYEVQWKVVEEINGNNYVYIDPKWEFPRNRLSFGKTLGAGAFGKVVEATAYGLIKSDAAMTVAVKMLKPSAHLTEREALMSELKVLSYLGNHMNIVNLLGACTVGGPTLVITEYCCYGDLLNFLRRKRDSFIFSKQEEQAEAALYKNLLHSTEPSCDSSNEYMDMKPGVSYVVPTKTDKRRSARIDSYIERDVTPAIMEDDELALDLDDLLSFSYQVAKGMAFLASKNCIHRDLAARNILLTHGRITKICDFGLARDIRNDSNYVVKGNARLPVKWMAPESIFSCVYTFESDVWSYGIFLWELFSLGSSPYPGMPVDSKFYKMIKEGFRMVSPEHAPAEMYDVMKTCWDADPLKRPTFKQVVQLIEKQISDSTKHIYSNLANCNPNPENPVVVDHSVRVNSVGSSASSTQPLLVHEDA", "assay": "Proliferation test, FMA3 cells", "format": "cell-based", "conditions": "doses inferior to toxicity level (<10 μM)", "from_the_text": "(§3) Juxtamembrane Mutations • Ba/F3-KitΔ27 (transfected juxtamembrane mutation—identified at the Laboratory) • Ba/F3-KitG559 (transfected juxtamembrane mutation) • FMA3 (deletion 7aa. juxtamembrane identified in a mouse mastocytome)"}, "[4]": {"target": "T2, SCF activated c-kit wild (Mus musculus, UniProt P05532)", "T2 construct": "expressed in transfected cells; host or cells: Ba/F3 (murine, IL-3 dependent)", "T2 sequence (P05532 25-975 isoform P05532-2 limits assumed)": "as the sequence (P05532 25-975 isoform P05532-2 limits assumed) above", "assay": "Proliferation test, Ba/F3 Kit cells with SCF", "format": "cell-based, murine", "conditions": "doses inferior to toxicity level (<10 μM)", "method": "as §1\n(§4) Two types of cell lines carrying wild or mutated forms of c-kit are available lines derived from mastocytomes and the Ba/F3 cell model (cells depending on IL-3). In the Ba/F3 cells, the expression of c-kit removes the dependence vis-a-vis IL-3. Consequently, cDNA of wild or mutated murine c-kit has been introduced and these cells proliferate either in presence of SCF in case of c-kit wild or in absence of any growth factor in case of activated mutant c-kit.\nPreparation of cell lines • Ba/F3-Kit: Ba/F3 cells in which Kit gene, mutated or wild, has been introduced. They proliferate either in presence of Kit ligand (SCF) or in presence of IL-3. […]"}, "[5]": {"test_system": "c-kit bearing juxtamembrane mutations", "sequence (P05532 592-939 limits assumed, change not shown)": "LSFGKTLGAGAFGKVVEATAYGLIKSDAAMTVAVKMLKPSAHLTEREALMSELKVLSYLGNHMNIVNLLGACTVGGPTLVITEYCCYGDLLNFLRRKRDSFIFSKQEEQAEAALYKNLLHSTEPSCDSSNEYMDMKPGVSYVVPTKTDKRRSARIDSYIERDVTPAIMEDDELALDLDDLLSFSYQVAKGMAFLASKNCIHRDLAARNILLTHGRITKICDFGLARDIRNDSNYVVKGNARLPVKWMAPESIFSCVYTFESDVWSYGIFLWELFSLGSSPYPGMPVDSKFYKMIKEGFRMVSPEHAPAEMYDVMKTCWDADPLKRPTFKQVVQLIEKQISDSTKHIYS", "assay": "c-kit phosphorylation after immunoprecipitation, juxtamembrane mutants", "format": "cell-based", "method": "as §1, §2"}, "[6]": {"test_system": "c-kit carrying one of the juxtamembrane mutations (Δ27)", "assay": "Proliferation test, Ba/F3 Δ27 cells", "format": "cell-based, murine", "conditions": "doses inferior to toxicity level (<10 μM)", "from_the_text": "as §4, §3\nCells expressing c-kit carrying one of the juxtamembrane mutations (Δ27) were also used as a control.\n(§5) Table set up according to CPM (Counts Per Minutes) percentage obtained after proliferation in absence of inhibitors as 100% (% CPM>80=−−/50<% CPM<80=−/20<% CPM <50=+/5<% CPM<20=+/%-CPM<5=++). All experiments were done in triplicate."}, "[7]": {"test_system": "814 mutant c-kit", "assay": "c-kit phosphorylation after immunoprecipitation, 814 mutant", "format": "cell-based", "method": "as §1, §2"}, "[8]": {"target": "T3, c-kit carrying the 814 mutation (Mus musculus, UniProt P05532, D818V)", "T3 construct": "expressed in transfected cells; host or cells: IC2 murine mast cell line", "T3 sequence (P05532 25-975 isoform P05532-2 D814V limits assumed)": "as the sequence (P05532 25-975 isoform P05532-2 limits assumed) above, with D790V counted along it", "assay": "Proliferation test, IC2 D814V cells", "format": "cell-based, murine", "conditions": "doses inferior to toxicity level (<10 μM)", "method": "We have tested 37 compounds that are indolinone derivatives in different cell lines and successive screening to select interesting inhibitors. • Method: select the compounds which are effectively c-kit inhibitors (Table 1) Each compound has been tested at a high dose (10 μM) on cell expressing • c-kit carrying the 814 mutation • SCF activated c-kit wild • control cells cultivated in IL-3.\nThe effect of the 21 inhibitors has been tested at decreasing concentrations (10-10^−1-10^−2 μM) in order to reveal compounds that are able at 1 μM to inhibit proliferation of the IC2 D814V line while preserving response to another stimulus (IL-3, toxicity control).\nThe nine compounds selected have been tested at narrower doses: between 0.1 and 1 μM. At this stage, the three most efficient compounds at lower doses have been selected (≦0.6 μM): 11, 14 and 35.\nas §5"}},
  "data": [
    {"substance": "STI 571", "values": [
      {"measurement": "Inhibitory effect on kinase activity of HMC-1 mutant compared with ligand-dependent activation of the wild-type receptor", "setting": "[1]", "value": "more potent inhibitory effect"},
      {"measurement": "Phosphorylation of c-kit wild", "setting": "[2]", "value": "considerably reduces the phosphorylation"},
      {"measurement": "Effect on proliferation, juxtamembrane mutation FMA3", "setting": "[3]", "value": "inhibits totally the proliferation"},
      {"measurement": "Effect on proliferation depending on c-kit wild", "setting": "[4]", "value": "inhibits totally the proliferation"},
      {"measurement": "Phosphorylation of c-kit bearing juxtamembrane mutations", "setting": "[5]", "value": "considerably reduces the phosphorylation"},
      {"measurement": "Effect on proliferation, juxtamembrane mutation Δ27", "setting": "[6]", "value": "inhibits totally the proliferation"},
      {"measurement": "Phosphorylation of the 814 mutant c-kit", "setting": "[7]", "value": "is not reduced"},
      {"measurement": "Effect on proliferation of cells carrying 814 mutation, IC2", "setting": "[8]", "value": "not the proliferation of cells carrying 814 mutation"}
    ]}
  ]
}
